The results in this text go back to US11530213B2, “Naphthyridinone derivatives and their use in the treatment of arrhythmia” (NOVARTIS AG, priority 2016, dated 2022).

In general, IC50 refers to the point on the concentration scale where inhibition reaches its midpoint. The low end stands for greater potency in that assay, the high end for weaker potency in that assay.

Structures are written as SMILES.

This experiment deals with GIRK1/4 (Homo sapiens (Human), UniProt P48544+P48549). The experiment is described as follows: GIRK1/4 inhibition, Quattro (IonWorks) population patch clamp, inward potassium current in GIRK 1/4 HEK293 stable cells (test assay No. 1). It counts as cell-based. The following applies: percentage of current inhibition normalized to DMSO-only control. An outline of the steps: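 GIRK1/4-expressing HEK293 cells were recorded by IonWorks Quattro perforated patch (amphotericin B), with inward K+ current measured at 1200-1220 ms during a −120 to 40 mV ramp, before and after compound (50-0.1 µM or 0.5-0.01 µM final, quadruplicate). IC50 came from % current inhibition normalized to DMSO control.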
Sequence of GIRK1/4 (P48549 whole entry): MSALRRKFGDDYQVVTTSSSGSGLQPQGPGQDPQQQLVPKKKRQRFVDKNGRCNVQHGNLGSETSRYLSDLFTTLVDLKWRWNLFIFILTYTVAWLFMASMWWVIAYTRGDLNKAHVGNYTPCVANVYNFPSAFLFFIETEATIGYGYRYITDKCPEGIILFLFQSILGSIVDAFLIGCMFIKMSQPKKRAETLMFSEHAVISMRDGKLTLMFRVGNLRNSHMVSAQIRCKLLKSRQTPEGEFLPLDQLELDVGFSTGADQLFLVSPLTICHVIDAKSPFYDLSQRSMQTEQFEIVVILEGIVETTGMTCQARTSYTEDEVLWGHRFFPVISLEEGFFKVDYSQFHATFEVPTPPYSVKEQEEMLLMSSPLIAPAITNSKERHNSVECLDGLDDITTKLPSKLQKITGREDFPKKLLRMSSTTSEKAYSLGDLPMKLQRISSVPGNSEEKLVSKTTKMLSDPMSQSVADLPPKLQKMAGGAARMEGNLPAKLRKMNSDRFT
Sequence of GIRK1/4 (P48544 whole entry): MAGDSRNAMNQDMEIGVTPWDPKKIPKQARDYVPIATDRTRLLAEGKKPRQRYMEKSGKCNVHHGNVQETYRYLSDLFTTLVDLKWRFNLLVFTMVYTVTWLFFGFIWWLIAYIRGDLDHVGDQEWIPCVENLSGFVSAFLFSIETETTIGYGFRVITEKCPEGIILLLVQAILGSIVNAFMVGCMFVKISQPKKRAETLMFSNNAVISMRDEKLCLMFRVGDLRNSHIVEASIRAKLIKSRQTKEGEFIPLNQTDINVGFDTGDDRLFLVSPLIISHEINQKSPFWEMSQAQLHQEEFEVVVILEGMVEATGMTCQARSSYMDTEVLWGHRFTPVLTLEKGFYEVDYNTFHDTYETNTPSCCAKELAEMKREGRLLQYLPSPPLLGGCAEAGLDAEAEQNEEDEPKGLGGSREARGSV
Take `O=c1cc(C(F)F)n(-c2c(Cl)cccc2Cl)c2c(Cl)cnc(OCC(O)CO)c12` (centres unmarked) [Example 62, 8-Chloro-1-(2,6-dichlorophenyl)-2-(difluoromethyl)-5-(2,3-dihydroxypropoxy)-1,6-naphthyridin-4(1H)-one]: the half-inhibitory concentration (IC50) amounted to 13 nM. With `N#Cc1cc(=O)c2c(OCC(O)CO)ncc(Cl)c2n1-c1c(Cl)cccc1Cl` (centres unmarked) [Example 63, 8-Chloro-1-(2,6-dichlorophenyl)-5-(2,3-dihydroxpropoxy)-4-oxo-1,4-dihydro-1,6-naphthyridine-2-carbonitrile] the figure was 16 nM; with `O=c1cc(CO)n(-c2c(Cl)cccc2Cl)c2c(Cl)cnc(O)c12` [Example 64, 8-Chloro-1-(2,6-dichlorophenyl)-5-hydroxy-2-(hydroxymethyl)-1,6-naphthyridin-4(1H)-one], 970 nM; with `CNc1cc2c(c(OCC(O)CO)n1)c(=O)cc(C)n2-c1c(Cl)cccc1Cl` (centres unmarked) [Example 65, 1-(2,6-Dichlorophenyl)-5-(2,3-dihydroxpropoxy)-2-methyl-7-(methylamino)-1,6-naphthyridin-4(1H)-one], 390 nM.

On to `CCc1cc2c(c(OCC(O)CO)n1)c(=O)cc(C)n2-c1c(Cl)cccc1Cl` (centres unmarked) [Example 66, 1-(2,6-Dichlorophenyl)-5-(2,3-dihydroxpropoxy)-7-ethyl-2-methyl-1,6-naphthyridin-4(1H)-one], for which it took 34 nM to reach half-maximal inhibition (IC50). With `CCc1cc2c(c(OCC(O)CO)n1)c(=O)cc(C)n2-c1c(Cl)cccc1CC` (centres unmarked) [Example 67, 1-(2-Chloro-6-ethylphenyl)-5-(2,3-dihydroxypropoxy)-7-ethyl-2-methyl-1,6-naphthyridin-4(1H)-one] the figure was 168 nM. The same measure for `COc1cc2c(c(OCC(O)CO)n1)c(=O)cc(C)n2-c1c(Cl)cccc1Cl` (centres unmarked) [Example 68, 1-(2,6-Dichlorophenyl)-5-(2,3-dihydroxpropoxy)-7-methoxy-2-methyl-1,6-naphthyridin-4(1H)-one]: 234 nM. For the compound `CCc1cnc(OCC(O)CO)c2c(=O)cc(C)n(-c3c(Cl)cccc3Cl)c12` (centres unmarked) [Example 69, 1-(2,6-Dichlorophenyl)-5-(2,3-dihydroxpropoxy)-8-ethyl-2-methyl-1,6-naphthyridin-4(1H)-one], the IC50 turned out to be 115 nM. The same measure for `Cc1cc(=O)c2c(NS(=O)(=O)c3cn[nH]c3)cncc2n1-c1c(Cl)cc(C#N)cc1Cl` [Example 70, N-(1-(2,6-Dichloro-4-cyanophenyl)-2-methyl-4-oxo-1,4-dihydro-1,7-naphthyridin-5-yl)-1H-pyrazole-4-sulfonamide]: 3050 nM; for `Cc1cc(=O)c2c(-n3cncn3)ncc(Cl)c2n1-c1c(Cl)cccc1Cl` [Example 71, 8-Chloro-1-(2,6-dichlorophenyl)-2-methyl-5-(1H-1,2,4-triazol-1-yl)-1,6-naphthyridin-4(1H)-one]: 176 nM; for `Cc1cc(=O)c2c(-c3cc[nH]n3)cncc2n1-c1c(Cl)cc(C#N)cc1Cl` [Example 72, 3,5-dichloro-4-(2-methyl-4-oxo-5-(1H-pyrazol-3-yl)-1,7-naphthyridin-1(4H)-yl)benzonitrile]: 280 nM. Consider `Cc1cc(=O)c2c(-c3cnn(C)c3)cncc2n1-c1c(Cl)cc(C#N)cc1Cl` [Example 73, 3,5-Dichloro-4-(2-methyl-5-(1-methyl-1H-pyrazol-4-yl)-4-oxo-1,7-naphthyridin-1(4H)-yl)benzonitrile], for which 329 nM corresponded to half-maximal inhibition (IC50). The same measure for `O=c1cc(CO)n(-c2c(Cl)cccc2Cl)c2c(Cl)cnc(CCCO)c12` [Example 74, 8-Chloro-1-(2,6-dichlorophenyl)-2-(hydroxymethyl)-5-(3-hydroxypropyl)-1,6-naphthyridin-4(1H)-one]: 69 nM; for `O=c1cc(CO)n(-c2c(Cl)cccc2Cl)c2c(Cl)cnc(CCC(O)CO)c12` (centres unmarked) [Example 75, 8-Chloro-1-(2,6-dichlorophenyl)-5-(3,4-dihydroxybutyl)-2-(hydroxymethyl)-1,6-naphthyridin-4(1H)-one]: 214 nM; for `O=c1cc(CO)n(-c2c(Cl)cccc2Cl)c2c(Cl)cnc(CC(O)CO)c12` (centres unmarked) [Example 78, 8-Chloro-1-(2,6-dichlorophenyl)-5-(2,3-dihydroxypropyl)-2-(hydroxymethyl)-1,6-naphthyridin-4(1H)-one]: 352 nM. `Cc1cc(=O)c2c(CC(O)CO)ncc(Cl)c2n1-c1c(Cl)cccc1Cl` (centres unmarked) [Example 81, 8-Chloro-1-(2,6-dichlorophenyl)-5-(2,3-dihydroxpropyl)-2-methyl-1,6-naphthyridin-4(1H)-one] returned an IC50 of 23 nM. For `O=c1cc(CO)n(-c2c(Cl)cccc2Cl)c2c(Cl)cnc(C(O)CO)c12` (centres unmarked) [Example 82, 8-Chloro-1-(2,6-dichlorophenyl)-5-(1,2-dihydroxyethyl)-2-(hydroxymethyl)-1,6-naphthyridin-4(1H)-one], the IC50 was determined as 147 nM.

The compound `Cc1cc(=O)c2c(C(O)CO)ncc(Cl)c2n1-c1c(Cl)cccc1Cl` (centres unmarked) [Example 85, 8-Chloro-1-(2,6-dichlorophenyl)-5-(1,2-dihydroxyethyl)-2-methyl-1,6-naphthyridin-4(1H)-one] yielded an IC50 of 19 nM. The same measure for `Cc1cc(=O)c2c(C(=O)CO)ncc(Cl)c2n1-c1c(Cl)cccc1Cl` [Example 86, 8-Chloro-1-(2,6-dichlorophenyl)-5-(2-hydroxyacetyl)-2-methyl-1,6-naphthyridin-4(1H)-one]: 37 nM; for `O=c1cc(CO)n(-c2c(Cl)cccc2Cl)c2c(Cl)cnc(COCC(O)CO)c12` (centres unmarked) [Example 87, 8-Chloro-1-(2,6-dichlorophenyl)-5-((2,3-dihydroxypropoxy)methyl)-2-(hydroxymethyl)-1,6-naphthyridin-4(1H)-one]: 2260 nM; for `O=c1cc(CO)n(-c2c(Cl)cccc2Cl)c2c(Cl)cnc(COC(CO)CO)c12` [Example 88, 8-Chloro-1-(2,6-dichlorophenyl)-5-(((1,3-dihydroxypropan-2-yl)oxy)methyl)-2-(hydroxymethyl)-1,6-naphthyridin-4(1H)-one]: 1230 nM. As to `Cc1cc(=O)c2c(C(C)(O)C(=O)CO)ncc(Cl)c2n1-c1c(Cl)cccc1Cl` (centres unmarked) [Example 89, 8-Chloro-1-(2,6-dichlorophenyl)-5-(2,4-dihydroxy-3-oxobutan-2-yl)-2-methyl-1,6-naphthyridin-4(1H)-one], inhibition was half-maximal at 24 nM (IC50). The same measure for `Cc1cc(=O)c2c(OCC(O)CO)ncc(Cl)c2n1-c1c(Cl)cc(C#CC(C)(C)N)cc1Cl` (centres unmarked) [Example 90, 1-(4-(3-Amino-3-methylbut-1-yn-1-yl)-2,6-dichlorophenyl)-8-chloro-5-(2,3-dihydroxypropoxy)-2-methyl-1,6-naphthyridin-4(1H)-one]: 327 nM.

In the case of `Cc1cc(=O)c2c(OCCO)ncc(Cl)c2n1-c1c(Cl)cc(C#CCN2CCOCC2)cc1Cl` [Example 91, 8-Chloro-1-(2,6-dichloro-4-(3-morpholinoprop-1-yn-1-yl)phenyl)-5-(2-hydroxyethoxy)-2-methyl-1,6-naphthyridin-4(1H)-one], the concentration for half-maximal inhibition (IC50) turned out to be 40 nM. The compound `Cc1cc(=O)c2c(OCCO)ncc(Cl)c2n1-c1c(Cl)cc(C#CCN2CCS(=O)(=O)CC2)cc1Cl` [Example 92, 8-Chloro-1-(2,6-dichloro-4-(3-(1,1-dioxidothiomorpholino)prop-1-yn-1-yl)phenyl)-5-(2-hydroxyethoxy)-2-methyl-1,6-naphthyridin-4(1H)-one] registered a half-maximal inhibitory concentration (IC50) of 47 nM. `Cc1cc(=O)c2c(OCC3COC(C)(C)O3)ncc(Cl)c2n1-c1c(Cl)cc(C#CCN(C)C)cc1Cl` (centres unmarked) [Example 93, 8-Chloro-1-(2,6-dichloro-4-(3-(dimethylamino)prop-1-yn-1-yl)phenyl)-5-((2,2-dimethyl-1,3-dioxolan-4-yl)methoxy)-2-methyl-1,6-naphthyridin-4(1H)-one] showed an IC50 of 46 nM.
